Source: patent publication US20260265262A1, “CDK2 INHIBITORS AND METHODS OF USING THE SAME” (Cedilla Therapeutics, Inc., priority 2022, published 2026)

Assays:
[1] = tested on: Kuramochi cells; assay: IncuCyte cell proliferation assay; assay type: cell-based; settings: Kuramochi cells labeled with mApple-H2B, cell count 0 to 72 hours, 20 μM top concentration; read-out: IncuCyte Kuramochi RB-WT: IC50
Experimental: IncuCyte® assay was used to measure the effect of disclosed compounds on cell proliferation. Fluorescent microscopy images of cells were taken immediately after compound treatment and 72 hours later. Image analysis software was used to obtain cell counts as a function of compound concentration. Kuramochi cells labeled with mApple-H2B were seeded on 384-well assay-ready plates. Plates were placed in an IncuCyte® (Sartorius) and scanned at 0 and 72 hours. IncuCyte® software was used to count the number of fluorescent nuclei in each well. The fold change in cell count from 0 to 72 hours in wells treated with increasing compounds concentrations (10 pts, 1/2 log dilution, 20 μM top concentration) was normalized to DMSO control wells. The normalized cell counts were fit with dose response curves and a […] was calculated.

[2] = biological target: CDK2/Cyclin E1 (Homo sapiens, UniProt P24941); assay: ADP-Glo Luminescent Kinase Assay (CDK2/E1-37C); assay type: biochemical; settings: 0.18 nM CDK2/Cyclin E1, 100 μM ATP, 1.5 μM Histone H1, 37° C., 60 min pre-incubation; read-out: ADPGLO (CDK2/E1-37C): IC50
Experimental: Inhibition of CDK2/Cyclin E1 activity by the presence of small molecules was evaluated using ADP-Glo Luminescent Kinase Assay (Promega). Activated CDK2/Cyclin E1 was incubated with its substrate Histone H1 (SignalChem H10-54N) in the kinase reaction buffer (100 μM ATP, 50 mM HEPES pH 7.5, 10 mM MgCl2, 1 mM EDTA, 2 mM DTT, 0.01% Brij35, 0.5 mg/mL BSA). Luminescence was recorded with an Envision plate reader (PerkinElmer).
Dose titrations of inhibitors in 100% DMSO were combined with 0.36 nM CDK2/Cyclin E1 in reaction buffer. The mixtures were incubated for 60 minutes at 37° C. before the addition of ATP and Histone H1 substrate to initiate the kinase reaction. The final conditions were 0.18 nM CDK2/Cyclin E1, 100 μM ATP, and 1.5 μM Histone H1. The reactions were incubated at 37° C. for 90 minutes before being stopped with the addition of ADP-Glo reagent. This mixture was incubated at room temperature for 60 minutes before Kinase Detection Solution is added to generate luminescence. The stopped reactions were analyzed on an Envision plate reader. The conversion ratios were normalized to yield % activity, plotted against compound concentration, and fit to a four-parameter equation to determine the IC50 for each compound.

Row | SMILES | IC50 [1] [µM] | IC50 [2] [µM]
1 | CC1(C)C[C@@H]1C(=O)N1CC2(CN(C(=O)c3cncs3)C[C@H]2C(=O)N2CCN(CC3CCCCC3)C(CC(=O)NS(C)(=O)=O)C2)C1 (single isomer, unassigned) [Example I-95] | > 20 | > 10
2 | C[C@@H](OCC12CCC(CC1)OC2)[C@H](NC(=O)[C@H]1CN(C(=O)c2cnc(O)cn2)CC12CN(C(=O)C1(C(F)(F)F)CC1)C2)C(=O)N1CCC(c2ccc(C(=O)O)c(C(F)(F)F)c2)CC1 (single isomer, unassigned) [I-89 2nd, 4-(1-(O-((2-oxabicyclo[2.2.2]octan-4-yl)methyl)-N-(6-(5-hydroxypyrazine-2-carbonyl)-2-(1-(trifluoromethyl)cyclopropane-1-carbonyl)-2,6-diazaspiro[3.4]octane-8-carbonyl)-L-threonyl)piperidin-4-yl)-2-(trifluoromethyl)benzoic acid] | > 20 | 0.5 to 5
3 | COC(=O)c1c(F)cc(C2CCN(C(=O)[C@@H](NC(=O)[C@@H]3CN(C(=O)c4cnn(Cc5ccc(C(F)(F)F)cc5)c4)CC34CN(C(=O)C3(C(F)(F)F)CC3)C4)[C@@H](C)OCC34CCC(CC3)OC4)CC2)cc1F (stereo in doubt) [Example I-2] | 0.5 to 5 | < 0.5
4 | COC(=O)C(C)(C)Oc1ccc(C2CCN(C(=O)[C@@H](NC(=O)[C@@H]3CN(C(=O)c4cnn(Cc5ccc(C(F)(F)F)cc5)c4)CC34CN(C(=O)C3(C(F)(F)F)CC3)C4)[C@@H](C)OCC34CCC(CC3)OC4)CC2)cc1C(F)(F)F (stereo in doubt) [Example I-5] | > 20 | > 10
5 | C[C@@H](OCC12CCC(CC1)OC2)[C@H](NC(=O)[C@@H]1CN(C(=O)c2cnn(Cc3ccccc3C(=O)O)c2)CC12CN(C(=O)C1(C(F)(F)F)CC1)C2)C(=O)NCCC1CCNCC1 (stereo in doubt) [Example I-102] | > 20 | 0.5 to 5
6 | C[C@@H](OCC1CCOCC1)[C@H](NC(=O)C1CN(C(=O)c2cnn(Cc3ccc(C(F)(F)F)cc3)c2)CC12CN(C(=O)C1(C(F)(F)F)CC1)C2)C(=O)N1CCC(c2ccc(C(=O)O)cc2)CC1 (stereo in doubt) [I-64 2nd, 4-(1-(O-((tetrahydro-2H-pyran-4-yl)methyl)-N—((S)-6-(1-(4-(trifluoromethyl)benzyl)-1H-pyrazole-4-carbonyl)-2-(1-(trifluoromethyl)cyclopropane-1-carbonyl)-2,6-diazaspiro[3.4]octane-8-carbonyl)-L-threonyl)piperidin-4-yl)benzoic acid] | > 20 | > 10
7 | C[C@@H](OCC12CCC(CC1)OC2)[C@H](NC(=O)[C@@H]1CN(C(=O)c2cnc(O)cn2)CC12CN(C(=O)C1(C(F)(F)F)CC1)C2)C(=O)N1CCC(c2ccc(C(F)(F)F)cc2C(=O)O)CC1 [Example I-1, 2-(1-(O-((2-oxabicyclo[2.2.2]octan-4-yl)methyl)-N—((S)-6-(5-hydroxypyrazine-2-carbonyl)-2-(1-(trifluoromethyl)cyclopropane-1-carbonyl)-2,6-diazaspiro[3.4]octane-8-carbonyl)-L-threonyl)piperidin-4-yl)-5-(trifluoromethyl)benzoic acid] | > 20 | < 0.5
8 | C[C@@H](OCC12CCC(CC1)OC2)[C@H](NC(=O)[C@@H]1CN(C(=O)c2cnn(Cc3ccc(C(F)(F)F)cc3)c2)CC12CN(C(=O)C1(C(F)(F)F)CC1)C2)C(=O)N1CCC(c2ccccc2C(=O)O)CC1 [Example I-3, 2-(1-(O-((2-oxabicyclo[2.2.2]octan-4-yl)methyl)-N—((S)-6-(1-(4-(trifluoromethyl)benzyl)-1H-pyrazole-4-carbonyl)-2-(1-(trifluoromethyl)cyclopropane-1-carbonyl)-2,6-diazaspiro[3.4]octane-8-carbonyl)-L-threonyl)piperidin-4-yl)benzoic acid] | 0.5 to 5 | < 0.5
9 | C[C@@H](OCC12CCC(CC1)OC2)[C@H](NC(=O)[C@@H]1CN(C(=O)c2cnn(Cc3ccc(C(F)(F)F)cc3)c2)CC12CN(C(=O)C1(C(F)(F)F)CC1)C2)C(=O)N1CCC(c2ccc(OC(C)(C)C(=O)O)c(C(F)(F)F)c2)CC1 [Example I-4] | > 20 | < 0.5
10 | CC1(C)C[C@@H]1C(=O)N1CC2(CN(C(=O)c3cncs3)C[C@H]2C(=O)N2CCN(CC3CCCCC3)C(CC(=O)O)C2)C1 (stereo partly drawn) [Example I-6, 2-(1-(cyclohexylmethyl)-4-((S)-2-((S)-2,2-dimethylcyclopropane-1-carbonyl)-6-(thiazole-5-carbonyl)-2,6-diazaspiro[3.4]octane-8-carbonyl)piperazin-2-yl)acetic acid] | > 20 | > 10
11 | C=CCOC(=O)N1CCC2(CC1)CCN(C(=O)[C@@H](NC(=O)[C@@H]1CN(C(=O)c3cnn(Cc4ccccc4C(=O)O)c3)CC13CN(C(=O)C1(C(F)(F)F)CC1)C3)[C@@H](C)OCC13CCC(CC1)OC3)CC2 [Example I-7, 2-((4-((S)-8-(((2S,3R)-3-((2-oxabicyclo[2.2.2]octan-4-yl)methoxy)-1-(9-((allyloxy)carbonyl)-3,9-diazaspiro[5.5]undecan-3-yl)-1-oxobutan-2-yl)carbamoyl)-2-(1-(trifluoromethyl)cyclopropane-1-carbonyl)-2,6-diazaspiro[3.4]octane-6-carbonyl)-1H-pyrazol-1-yl)methyl)benzoic acid] | > 20 | < 0.5
12 | C[C@@H](OCC12CCC(CC1)OC2)[C@H](NC(=O)[C@@H]1CN(C(=O)c2cnc(O)cn2)CC12CN(C(=O)[C@H]1CC1(C)C)C2)C(=O)N1CCC(c2ccc(C(F)(F)F)cc2C(=O)O)CC1 [Example I-10] | > 20 | < 0.5
13 | COC(=O)c1ccccc1C1CCN(C(=O)[C@@H](NC(=O)[C@@H]2CN(C(=O)c3cnn(Cc4ccc(C(F)(F)F)cc4)c3)CC23CN(C(=O)C2(C(F)(F)F)CC2)C3)[C@@H](C)OCC23CCC(CC2)OC3)CC1 [Example I-11, methyl 2-(1-(O-((2-oxabicyclo[2.2.2]octan-4-yl)methyl)-N—((S)-6-(1-(4-(trifluoromethyl)benzyl)-1H-pyrazole-4-carbonyl)-2-(1-(trifluoromethyl)cyclopropane-1-carbonyl)-2,6-diazaspiro[3.4]octane-8-carbonyl)-L-threonyl)piperidin-4-yl)benzoate] | 0.5 to 5 | < 0.5
14 | C[C@@H](OCC12CCC(CC1)OC2)[C@H](NC(=O)[C@@H]1CN(C(=O)c2cnn(Cc3ccc(C(F)(F)F)cc3)c2)CC12CN(C(=O)C1(C(F)(F)F)CC1)C2)C(=O)N1CCC(c2ccc(C(=O)O)cc2)CC1 [Example I-12] | > 20 | < 0.5
15 | COC(=O)c1ccc(C2CCN(C(=O)[C@@H](NC(=O)[C@@H]3CN(C(=O)c4cnn(Cc5ccc(C(F)(F)F)cc5)c4)CC34CN(C(=O)C3(C(F)(F)F)CC3)C4)[C@@H](C)OCC34CCC(CC3)OC4)CC2)cc1 [Example I-13] | 0.5 to 5 | < 0.5
16 | C[C@@H](OCC1(C(=O)O)CCCCC1)[C@H](NC(=O)[C@@H]1CN(C(=O)c2cnn(Cc3ccc(C(F)(F)F)cc3)c2)CC12CN(C(=O)C1(C(F)(F)F)CC1)C2)C(=O)N1CCC(c2nccs2)CC1 [Example I-76, 1-((((2R,3S)-4-oxo-4-(4-(thiazol-2-yl)piperidin-1-yl)-3-((S)-6-(1-(4-(trifluoromethyl)benzyl)-1H-pyrazole-4-carbonyl)-2-(1-(trifluoromethyl)cyclopropanecarbonyl)-2,6-diazaspiro[3.4]octane-8-carboxamido)butan-2-yl)oxy)methyl)cyclohexanecarboxylic acid] | – | 5 to 10
17 | C[C@H](OCC12CCC(CC1)OC2)[C@@H](NC(=O)[C@@H]1CN(C(=O)c2cnc(O)cn2)CC12CN(C(=O)C1(C(F)(F)F)CC1)C2)C(=O)N1CCC(c2ccc(C(F)(F)F)c(C(=O)O)c2)CC1 [Example I-82, 5-(1-(O-((2-oxabicyclo[2.2.2]octan-4-yl)methyl)-N—((S)-6-(5-hydroxypyrazine-2-carbonyl)-2-(1-(trifluoromethyl)cyclopropane-1-carbonyl)-2,6-diazaspiro[3.4]octane-8-carbonyl)-D-threonyl)piperidin-4-yl)-2-(trifluoromethyl)benzoic acid] | > 20 | –
18 | C[C@@H](OCC12CCC(CC1)OC2)[C@@H](CN1CCC(C(=O)O)CC1)NC(=O)[C@@H]1CN(C(=O)c2cnn(Cc3ccc(C(F)(F)F)cc3)c2)CC12CN(C(=O)C1(C(F)(F)F)CC1)C2 [Example I-97, 1-((2R,3R)-3-((2-oxabicyclo[2.2.2]octan-4-yl)methoxy)-2-((S)-6-(1-(4-(trifluoromethyl)benzyl)-1H-pyrazole-4-carbonyl)-2-(1-(trifluoromethyl)cyclopropane-1-carbonyl)-2,6-diazaspiro[3.4]octane-8-carboxamido)butyl)piperidine-4-carboxylic acid] | – | > 10
